Patent US20150283092A1, “DRUG DELIVERY COMPOSITION” (Alkermes Pharma Ireland Limited, priority 2009, published 2015)
Read-outs that look alike come from different tables or passages of the source.

Key:
[1] = cited from earlier work
[2] = Dissolution of tacrolimus compositions in 0.005% HPC, pH 4.5, USP <711> apparatus I, baskets at 100 rpm; assay type: physicochemical
Description: Compositions A, B, and C were placed in 0.005% HPC, pH 4.5 according to USP <711>, apparatus I (2009), Baskets at 100 rpm (the dissolution vehicle). As an example of the different release profiles for the three compositions, the amount of medicament released from composition A was 92.07% at 120 min. The amount of medicament released from composition B was less than 10% at 360 min (excluded from graph due to scale). The amount of medicament released from Composition C was 43.55% at 120 min.

Row | native solubility of tacrolimus in this dissolution vehicle [2] | SMILES | pka value ([1]; first of two printed pka values) | pka value ([1]; second of two printed pka values)
1 | – | CN1CCN(C2=Nc3cc(Cl)ccc3Nc3ccccc32)CC1 [clozapine] | 3.98 | 7.62
2 | approximately 43 % dissolved | C=CC[C@@H]1/C=C(\C)C[C@H](C)C[C@H](OC)[C@H]2O[C@@](O)(C(=O)C(=O)N3CCCC[C@H]3C(=O)O[C@H](/C(C)=C/[C@@H]3CC[C@@H](O)[C@H](OC)C3)[C@H](C)[C@@H](O)CC1=O)[C@H](C)C[C@@H]2OC [tacrolimus] | – | –
